From PubChem BioAssay (NCI) come the findings set out here.

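Where inhibition never reached the appropriate level, the endpoint shown equals the highest concentration tested. Otherwise, values were interpolated linearly from a five-concentration, 48-hour dose response in 96-well plates. GI50 is the concentration that inhibits growth by half. Definition used: TGI = concentration required for complete inhibition of growth.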

Among the test systems are DLD-1 colon; DMS 273 small cell lung; EKVX NSCLC; HOP-18 NSCLC; M19-MEL melanoma; MALME-3M melanoma; NCI-H226 lung; NCI-H460 lung; SF-268 CNS; SF-539 CNS.
Common to all, as to assay: NCI-60 cell line screen, 48 h

`COC(=O)C1=C(O)C(O)=C(C(=O)OC)C1`: the TGI in the assay on DLD-1 colon, with DMS 273 small cell lung, in the assay on EKVX NSCLC, with HOP-18 NSCLC, with M19-MEL melanoma and in the assay on MALME-3M melanoma was more than 100 µM throughout. Also, the TGI in the assay with NCI-H226 lung, with NCI-H460 lung, with SF-268 CNS and in the assay on SF-539 CNS was more than 100 µM throughout.
Turning to `COc1ccc2ccc([Se]c3ccc4ccc(OC)cc4c3)cc2c1`, the TGI in the assay on DLD-1 colon, in the assay with DMS 273 small cell lung, in the assay with HOP-18 NSCLC, in the assay on M19-MEL melanoma, with MALME-3M melanoma and in the assay with NCI-H226 lung was more than 100 µM each time. Besides, the TGI in the assay with NCI-H460 lung, in the assay on SF-268 CNS and in the assay with SF-539 CNS was more than 100 µM throughout.
For `COc1ccc(/C=C2/C[N+](C)(C)C/C(=C/c3ccc(OC)cc3)C2=O)cc1`, the TGI in the assay with DLD-1 colon was more than 100 µM; in the assay with DMS 273 small cell lung, 51.3 µM; with EKVX NSCLC, more than 100 µM; with HOP-18 NSCLC, more than 100 µM; with M19-MEL melanoma it was 69.4 µM; in the assay with MALME-3M melanoma, 61.3 µM. Moreover, the TGI was more than 100 µM with NCI-H226 lung, more than 100 µM in the assay with NCI-H460 lung, more than 94.4 µM in the assay on SF-268 CNS and more than 100 µM in the assay with SF-539 CNS.
As to `CC1=Cc2cc3[n-]c(cc4nc(cc5[n-]c(cc1n2)cc5C)C(C)=C4CCC(=O)O)c(CCC(=O)O)c3C.[Pd+2]`, the GI50 was 14.5 µM in the assay with DLD-1 colon; 12 µM with DMS 273 small cell lung; more than 28.9 µM with EKVX NSCLC; 15.8 µM in the assay with HOP-18 NSCLC; 3.64 µM in the assay with M19-MEL melanoma; 10.5 µM in the assay on MALME-3M melanoma. In addition, the GI50 in the assay on NCI-H226 lung was 8.95 µM; with NCI-H460 lung it was 33.5 µM; with SF-268 CNS, 20.6 µM; with SF-539 CNS, 3.71 µM. For the same compound, the TGI is 35.8 µM with DLD-1 colon; 32.7 µM with DMS 273 small cell lung; more than 54.6 µM with EKVX NSCLC; 30.6 µM in the assay on HOP-18 NSCLC; 20.5 µM with M19-MEL melanoma; 38.5 µM in the assay with MALME-3M melanoma. Moreover, the TGI in the assay with NCI-H226 lung turned out to be 17.8 µM; in the assay with NCI-H460 lung, 59.2 µM; with SF-268 CNS, 47.7 µM; in the assay with SF-539 CNS, 13.7 µM.
For the compound `C=C1CC[C@@H]2C(C)(C)CCC[C@@]2(C)[C@@H]1Cc1cc(O)ccc1O`, the TGI was determined as 18.1 µM in the assay with DLD-1 colon; 19.4 µM in the assay with DMS 273 small cell lung; 29 µM in the assay with EKVX NSCLC; 30 µM in the assay on HOP-18 NSCLC; 11 µM in the assay on M19-MEL melanoma; 17.4 µM in the assay on MALME-3M melanoma. The TGI in the assay on NCI-H226 lung was determined as 7.09 µM; in the assay with NCI-H460 lung, 33.4 µM; with SF-268 CNS, 12.9 µM; in the assay with SF-539 CNS, 3.9 µM.
On to `CCOC(=O)CC1=CSC2=NCCN12`, for which the TGI in the assay on DLD-1 colon, with DMS 273 small cell lung, in the assay with EKVX NSCLC, in the assay with HOP-18 NSCLC, in the assay on M19-MEL melanoma and with MALME-3M melanoma was more than 100 µM in each case. Moreover, the TGI in the assay with NCI-H226 lung, with NCI-H460 lung, in the assay on SF-268 CNS and with SF-539 CNS was more than 100 µM throughout.
Regarding `CC(=O)Nc1ccc(C2[C@H]3C(=O)N(c4ccc(Cc5ccc(N6C(=O)[C@@H]7ON(c8ccccc8)C(c8ccc(NC(C)=O)cc8)[C@@H]7C6=O)cc5)cc4)C(=O)[C@H]3ON2c2ccccc2)cc1` (stereo not given in full), the TGI with DLD-1 colon, in the assay with DMS 273 small cell lung, in the assay with EKVX NSCLC, in the assay on HOP-18 NSCLC, in the assay on M19-MEL melanoma and in the assay on MALME-3M melanoma was more than 100 µM each time. Besides, the TGI with NCI-H226 lung, in the assay with NCI-H460 lung, with SF-268 CNS and with SF-539 CNS was more than 100 µM throughout.
On to `CC(c1cccc2ccccc12)/[N+]([O-])=C/c1ccccc1` (stereo not given), for which the TGI in the assay on DLD-1 colon, in the assay on DMS 273 small cell lung, with EKVX NSCLC, with HOP-18 NSCLC, with MALME-3M melanoma and in the assay with NCI-H460 lung was more than 100 µM in each case. Also, the TGI in the assay with SF-268 CNS and with SF-539 CNS was more than 100 µM in each case.
As for `CS(=O)c1ccc(COP(N)(=O)N(CCCl)CCCl)cc1` (stereo not given), the TGI in the assay with DLD-1 colon, with DMS 273 small cell lung, in the assay with EKVX NSCLC, with M19-MEL melanoma, in the assay on MALME-3M melanoma and in the assay on NCI-H226 lung was more than 100 µM in each case. Besides, the TGI in the assay on NCI-H460 lung, in the assay with SF-268 CNS and in the assay with SF-539 CNS was more than 100 µM in each case.
As for `Cc1c2cc[nH]c(=O)c2cc2c(=O)c3cnccc3[nH]c12`, the TGI with DLD-1 colon, with DMS 273 small cell lung, in the assay with EKVX NSCLC, in the assay with HOP-18 NSCLC, in the assay on M19-MEL melanoma and with MALME-3M melanoma was more than 100 µM in each case. For the same compound, the TGI with NCI-H226 lung, in the assay on NCI-H460 lung and in the assay on SF-268 CNS was more than 100 µM in each case.
On to `O=C(O)c1cc2c(cn1)[nH]c1ccccc12`, for which the TGI in the assay on DLD-1 colon, with DMS 273 small cell lung, with EKVX NSCLC, with HOP-18 NSCLC, with M19-MEL melanoma and with MALME-3M melanoma was more than 100 µM in each case. Also, the TGI in the assay on NCI-H226 lung, in the assay with NCI-H460 lung, with SF-268 CNS and with SF-539 CNS was more than 100 µM each time.
For the compound `ON=C1CCC(c2ccccc2)CC1` (stereo not given), the TGI with DLD-1 colon, in the assay with DMS 273 small cell lung, with EKVX NSCLC, in the assay with HOP-18 NSCLC, with M19-MEL melanoma and in the assay on MALME-3M melanoma was more than 100 µM in each case. In addition, the TGI with NCI-H226 lung, with NCI-H460 lung, with SF-268 CNS and with SF-539 CNS was more than 100 µM throughout.
As for `O=c1cc2ccccc2nn1-c1ccccc1Cl`, the TGI with DLD-1 colon, in the assay with DMS 273 small cell lung, in the assay on EKVX NSCLC, in the assay with HOP-18 NSCLC, in the assay on M19-MEL melanoma and in the assay with MALME-3M melanoma was more than 100 µM in each case. In addition, the TGI in the assay on NCI-H226 lung, in the assay with NCI-H460 lung, in the assay with SF-268 CNS and in the assay on SF-539 CNS was more than 100 µM each time.
